Source: patent US20230129359A1, “MUSCARINIC RECEPTOR 4 ANTAGONISTS AND METHODS OF USE” (Neurocrine Biosciences, Inc., priority 2020, published 2023)

biological target: T1, human M4 receptor (Homo sapiens, UniProt P08173); assay: Radioligand ([3H]N-methylscopolamine) binding assay, membranes from CHO cells expressing human M4 receptor; settings: Ki against human M4 receptor; membranes from CHO cells; tritiated N-methylscopolamine 1.5 nM; read-out: K
T1 construct: expressed in transfected cells; host or cells: CHO cells
T1 sequence (P08173 1-479): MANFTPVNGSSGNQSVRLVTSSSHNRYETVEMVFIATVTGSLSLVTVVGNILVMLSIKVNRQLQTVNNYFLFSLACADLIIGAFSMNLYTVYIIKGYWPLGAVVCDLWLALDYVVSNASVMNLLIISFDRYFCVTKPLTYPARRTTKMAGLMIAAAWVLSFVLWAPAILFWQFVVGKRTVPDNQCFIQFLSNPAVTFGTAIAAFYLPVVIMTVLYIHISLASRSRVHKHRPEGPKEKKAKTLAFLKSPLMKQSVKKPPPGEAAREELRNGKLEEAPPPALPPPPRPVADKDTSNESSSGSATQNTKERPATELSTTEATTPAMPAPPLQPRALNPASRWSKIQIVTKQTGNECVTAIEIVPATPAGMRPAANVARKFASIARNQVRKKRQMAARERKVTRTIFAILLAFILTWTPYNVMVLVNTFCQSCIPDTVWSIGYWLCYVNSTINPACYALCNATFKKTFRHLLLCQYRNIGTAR
Protocol: Binding affinity (Ki) for the compounds was measured by inhibition of radioligand binding to membranes from CHO cells expressing human M4 receptor. Membranes were prepared by nitrogen cavitation and differential centrifugation as previously described (Hoare et al., Mol. Pharmacol. 2003 March; 63(3): 751-65). The radioligand employed was tritiated N-methylscopolamine, used at a concentration of 1.5 nM. A dose-response of twelve concentrations of compound was used, ranging from […]. The assay buffer was 50 mM HEPES, 100 mM NaCl, 5 mM MgCl2, 1 mM ethylenediaminetetraacetic acid, pH-adjusted to pH 7.4. Membranes, radioligand and compound were incubated together for 90 minutes at 37° C., in a total volume of 150 μL in a 96-well plate. Receptor-bound radioligand was then collected by harvesting the assay over glass fiber filters pretreated with polyethylenimine to trap the cell membranes, using rapid vacuum filtration. Harvesting and radioactivity counting was conducted as previously described (see, e.g., Hoare et al., Mol. Pharmacol. 2003 63(3):751-65); Erratum at Mol. Pharmacol. 2005 July; 68(1): 260).

| Ki [nM] | SMILES |
| --- | --- |
| 10 to 100 | C[C@@H]1CN(c2cnc(C(F)(F)F)cn2)C[C@@H](C)N1C(=O)OC1CC2(C1)CN(Cc1ccc(F)cc1)C2 [Compound 398, 2-[(4-fluorophenyl)methyl]-2-azaspiro[3.3]heptan-6-yl (2R,6R)-2,6-dimethyl-4-[5-(trifluoromethyl)pyrazin-2-yl]piperazine-1-carboxylate] |
| 100 to 1000 | COc1ccc(N2C[C@@H](C)N(C(=O)OC3CC4(C3)CN(Cc3ccccc3)C4)[C@@H](C)C2)cc1 [Compound 524, 2-benzyl-2-azaspiro[3.3]heptan-6-yl (2R,6S)-4-(4-methoxyphenyl)-2,6-dimethylpiperazine-1-carboxylate] |
| 10 to 100 | C[C@@H]1CN(c2ncc(C(F)(F)F)cn2)C[C@@H](C)N1C(=O)OC1(C(F)F)CC2(CN(Cc3ccccc3)C2)C1 [Compound 344, 2-benzyl-6-(difluoromethyl)-2-azaspiro[3.3]heptan-6-yl (2R,6R)-2,6-dimethyl-4-[5-(trifluoromethyl)pyrimidin-2-yl]piperazine-1-carboxylate] |
| 100 to 1000 | C[C@@H]1CN(c2ncc(C#N)cn2)CCN1C(=O)OC1CC2(C1)CN(Cc1ccc(Cl)cc1)C2 [Compound 483, 2-[(4-chlorophenyl)methyl]-2-azaspiro[3.3]heptan-6-yl (2R)-4-(5-cyanopyrimidin-2-yl)-2-methylpiperazine-1-carboxylate] |
| 10 to 100 | C[C@@H]1CN(c2ncc(C(F)(F)F)cn2)C[C@@H](C)N1C(=O)NC1CC2(C1)CN(Cc1ccc(F)cc1)C2 [Compound 328, (2R,6R)-N-{2-[(4-fluorophenyl)methyl]-2-azaspiro[3.3]heptan-6-yl}-2,6-dimethyl-4-[5-(trifluoromethyl)pyrimidin-2-yl]piperazine-1-carboxamide] |
| 10 to 100 | C[C@@H]1CN(c2ncc(C(F)(F)F)cn2)C[C@H](C)N1C(=O)NC1CC2(C1)CN(CC13CC4CC(CC(C4)C1)C3)C2 [Compound 327, (2R,6S)-N-[2-(adamantan-1-ylmethyl)-2-azaspiro[3.3]heptan-6-yl]-2,6-dimethyl-4-[5-(trifluoromethyl)pyrimidin-2-yl]piperazine-1-carboxamide] |
| 10 to 100 | C[C@@H]1CN(c2ncc(C(F)F)cn2)C[C@H](C)N1C(=O)OC1CC2(C1)CN(Cc1ccc(F)cc1)C2 [Compound 467, 2-[(4-fluorophenyl)methyl]-2-azaspiro[3.3]heptan-6-yl (2R,6S)-4-[5-(difluoromethyl)pyrimidin-2-yl]-2,6-dimethylpiperazine-1-carboxylate] |
| 10 to 100 | C[C@@H]1CN(c2nc3ccc(F)cc3o2)C[C@H](C)N1C(=O)OC1CC2(C1)CN(Cc1ccccc1)C2 [Compound 444, 2-benzyl-2-azaspiro[3.3]heptan-6-yl (2R,6S)-4-(6-fluoro-1,3-benzoxazol-2-yl)-2,6-dimethylpiperazine-1-carboxylate] |
| 10 to 100 | C[C@@H]1CN(c2nc3ccc(C(F)(F)F)cc3s2)C[C@@H](C)N1C(=O)OC1CC2(C1)CN(Cc1ccc(F)cc1)C2 [Compound 385, 2-[(4-fluorophenyl)methyl]-2-azaspiro[3.3]heptan-6-yl (2R,6R)-2,6-dimethyl-4-[6-(trifluoromethyl)-1,3-benzothiazol-2-yl]piperazine-1-carboxylate] |
| 10 to 100 | C[C@@H]1CN(c2ncc(C(F)(F)F)cn2)C[C@H](C)N1C(=O)NC1CC2(C1)CN(Cc1ccc[nH]1)C2 [Compound 309, (2R,6S)-2,6-dimethyl-N-[2-(1H-pyrrol-2-ylmethyl)-2-azaspiro[3.3]heptan-6-yl]-4-[5-(trifluoromethyl)pyrimidin-2-yl]piperazine-1-carboxamide] |
| 10 to 100 | C[C@@H]1CN(c2nc3ccc(F)cc3s2)C[C@@H](C)N1C(=O)OC1CC2(C1)CN(Cc1ccc(C(N)=O)cc1)C2 [Compound 402, 2-[(4-carbamoylphenyl)methyl]-2-azaspiro[3.3]heptan-6-yl (2R,6R)-4-(6-fluoro-1,3-benzothiazol-2-yl)-2,6-dimethylpiperazine-1-carboxylate] |

The remaining lines, values behind:

| SMILES | Ki [nM] |
| --- | --- |
| C[C@@H]1CN(c2ncc(C(F)(F)F)cn2)CCN1C(=O)OCC1CC2(C1)CN(Cc1ccccc1)C2 [Compound 133, {2-benzyl-2-azaspiro[3.3]heptan-6-yl}methyl (2R)-2-methyl-4-[5-(trifluoromethyl)pyrimidin-2-yl]piperazine-1-carboxylate] | 10 to 100 |
| C[C@@H]1CN(c2cnc(C(F)(F)F)cn2)C[C@@H](C)N1C(=O)OC1CC2(C1)CN(Cc1ccccc1)C2 [Compound 142, 2-benzyl-2-azaspiro[3.3]heptan-6-yl (2R,6R)-2,6-dimethyl-4-[5-(trifluoromethyl)pyrazin-2-yl]piperazine-1-carboxylate] | 10 to 100 |
| C[C@@H]1CN(c2ncc(C(F)(F)F)cc2F)C[C@H](C)N1C(=O)OC1CC2(C1)CN(Cc1ccccc1)C2 [Compound 277, 2-benzyl-2-azaspiro[3.3]heptan-6-yl (2R,6S)-4-[3-fluoro-5-(trifluoromethyl)pyridin-2-yl]-2,6-dimethylpiperazine-1-carboxylate] | < 10 |
| C[C@@H]1CN(c2ncc3ccccc3n2)[C@@H](C)CN1C(=O)NC1CC2(C1)CN(Cc1ccccc1)C2 [Compound 212, (2R,5S)-N-{2-benzyl-2-azaspiro[3.3]heptan-6-yl}-2,5-dimethyl-4-(quinazolin-2-yl)piperazine-1-carboxamide] | < 10 |
| COc1ccc2nc(N3C[C@@H](C)N(C(=O)NC4CC5(C4)CN(Cc4ccccc4)C5)C[C@@H]3C)cnc2c1 [Compound 222, (2R,5S)-N-{2-benzyl-2-azaspiro[3.3]heptan-6-yl}-4-(6-methoxyquinoxalin-2-yl)-2,5-dimethylpiperazine-1-carboxamide] | < 10 |
| C[C@@H]1CN(c2nc3ccc(F)cc3s2)C[C@H](C)N1C(=O)NC1CC2(C1)CN(Cc1ccccc1)C2 [Compound 231, (2R,6S)-N-{2-benzyl-2-azaspiro[3.3]heptan-6-yl}-4-(6-fluoro-1,3-benzothiazol-2-yl)-2,6-dimethylpiperazine-1-carboxamide] | < 10 |
| C[C@@H]1CN(c2ncc(F)cn2)C[C@@H](C)N1C(=O)OC1CC2(C1)CN(Cc1ccccc1)C2 [Compound 158, 2-benzyl-2-azaspiro[3.3]heptan-6-yl (2R,6R)-4-(5-fluoropyrimidin 2-yl)-2,6-dimethylpiperazine-1-carboxylate] | 100 to 1000 |
| C[C@@H]1CN(c2ncc(C(F)(F)F)cn2)C[C@@H](C)N1C(=O)OC1CC2(C1)CN(CC(C)(C)C)C2 [Compound 146, 2-(2,2-dimethylpropyl)-2-azaspiro[3.3]heptan-6-yl (2R,6R)-2,6-dimethyl-4-[5-(trifluoromethyl)pyrimidin-2-yl]piperazine-1-carboxylate] | 100 to 1000 |
| C[C@@H]1CN(c2nc3ccc(F)cc3s2)CCN1C(=O)NC1CC2(C1)CN(Cc1ccccc1)C2 [Compound 234, (2R)-N-{2-benzyl-2-azaspiro[3.3]heptan-6-yl}-4-(6-fluoro-1,3-benzothiazol-2-yl)-2-methylpiperazine-1-carboxamide] | < 10 |
| O=C(OC1CC2(C1)CN(Cc1ccccc1)C2)N1CCN(c2ccc(C(F)(F)F)cn2)CC1 [Compound 121, 2-benzyl-2-azaspiro[3.3]heptan-6-yl 4-[5-(trifluoromethyl)pyridin-2-yl]piperazine-1-carboxylate] | 100 to 1000 |
| O=C(OC1CC2(C1)CN(Cc1ccccc1)C2)N1CC2COCC(C1)N2c1ncc(C(F)(F)F)cn1 [Compound 495, 2-benzyl-2-azaspiro[3.3]heptan-6-yl 9-[5-(trifluoromethyl)pyrimidin-2-yl]-3-oxa-7,9-diazabicyclo[3.3.1]hnonane-7-carboxylate] | 10 to 100 |
| C[C@@H]1CN(c2ccc(F)c(C#N)c2)CCN1C(=O)NC1CC2(C1)CN(Cc1ccccc1)C2 [Compound 12, (2R)-N-{2-benzyl-2-azaspiro[3.3]heptan-6-yl}-4-(3-cyano-4-fluorophenyl)-2-methylpiperazine-1-carboxamide] | 10 to 100 |
| COc1ccc2nc(N3C[C@@H](C)N(C(=O)OC4CC5(C4)CN(Cc4ccccc4)C5)C[C@@H]3C)cnc2c1 [Compound 173, 2-benzyl-2-azaspiro[3.3]heptan-6-yl (2R,5S)-4-(6-methoxyquinoxalin-2-yl)-2,5-dimethylpiperazine-1-carboxylate] | 10 to 100 |
| C[C@@H]1CN(C(=O)NC2CC3(C2)CN(Cc2ccccc2)C3)[C@@H](C)CN1c1cnc(C(F)(F)F)cn1 [Compound 37, (2S,5R)-N-{2-benzyl-2-azaspiro[3.3]heptan-6-yl}-2,5-dimethyl-4-[5-(trifluoromethyl)pyrazin-2-yl)piperazine-1-carboxamide] | 10 to 100 |
